# Measurements: patent publication US6908942B2, “6-amino-2,2-dimethyl-3,4,6-trisubstituted benzopyran derivatives and their construction by parallel synthesis on solid-phase” (Korea Research Institute of Chemical Technology, priority 2002, dated 2005)
# Test system: lipid peroxidation induced by iron
# Test: Inhibitory effect on iron-induced lipid peroxidation in rat brain homogenate (MDA measurement, N-methyl-2-phenylindole, Bioxytech LPO-586 Kit)
# Type: biochemical
# Settings: FeCl2 400 μM, 30 min at 37° C., decrease of MDA vs DMSO control, absorption at 586 nm
# Procedure: The inhibitory effect of the present compounds on lipid peroxidation induced by iron was evaluated as follows:
# Rat brain was homogenized in Krebs buffer (15 mM HEPES, 10 mM glucose, 140 mM NaCl, 3.6 mM KCl, 1.5 mM CaCl2, 1.4 mM KH2PO4 and 0.7 mM MgCl, pH 7.4) and centrifuged at 12,000 rpm to obtain the supernatant serving as a raw material of lipid. To the brain homogenates, FeCl^2 was added to give a final concentration of 400 μM and allowed to stand for 30 min at 37° C. for promoting oxidation. Each of the compounds to be tested was added to give a concentration of 12.5 μM and a control group was solely added with dimethylsulfoxide (DMSO).
# When iron is added to brain homogenates, oxidation is promoted to increase the amount of malondialdehyde (MDA) as lipid peroxidation product. Therefore, in this Example, the level of lipid peroxidation was evaluated according to MDA measurement method. In general MDA measurement, the test sample is reacted with TBA (2-thiobarbituric acid) and the absorbance at 530 nm was measured. However, since such process includes a boiling step, it is unsuitable for dealing with test samples in large quantity. Therefore, in this Example, N-methyl-2-phenylindole was used as a color developing reagent in place of TBA so as to avoid boiling step. […] The inhibitory effect on lipid peroxidation of test compounds was evaluated by calculating the decreased level of MDA in percentage based on the amount of MDA in the control group. For the test compounds showing more than 80% inhibitory effect, the concentration-lipid peroxidation inhibition curves were plotted with reference to the decrease rate of MDA amount based on the amount of MDA in the control group and their IC50 values was calculated through least linear regression analysis.
# In addition, the representative antioxidants commercialized such as Promethazine, Trolox, Probucol and N-propyl gallate were examined in terms of 50% inhibition concentration (IC50) according to the above procedure and the results are shown in Table 4.
row,SMILES,IC50 [µM]
1,CC(C)(C)c1ccc(COC2C(OCCc3ccccc3)c3cc(NCc4ccccc4)ccc3OC2(C)C)cc1 (centres unmarked) [Compound 5-307],3.55
2,CC1(C)Oc2ccc(NCc3ccc(F)cc3)cc2C(OCc2ccccc2)C1OC(=O)c1cccs1 (centres unmarked) [Compound 5-1809],6.36
3,CNc1ccc2c(c1)C(OCCC1CCCCC1)C(OCc1ccc(F)cc1)C(C)(C)O2 (centres unmarked) [Compound 5-98],5.3
4,CNc1ccc2c(c1)C(OCCC1CCCCC1)C(OCc1ccccc1C)C(C)(C)O2 (centres unmarked) [Compound 5-101],6.03
5,C=CCOC1C(OCc2ccccc2)c2cc(NC)ccc2OC1(C)C (centres unmarked) [Compound 5-79],0.79
6,CNc1ccc2c(c1)C(OCc1ccccc1)C(OCc1ccccc1Cl)C(C)(C)O2 (centres unmarked) [Compound 5-70],1.15
7,CC1(C)Oc2ccc(NCc3ccccc3)cc2C(OCCc2ccccc2)C1OCc1cc(C(F)F)cc(C(F)(F)F)c1 (centres unmarked) [Compound 5-315],3.43
8,CCNc1ccc2c(c1)C(OCC)C(OC(=O)c1ccco1)C(C)(C)O2 (centres unmarked) [Compound 5-1570],3.03
9,COC1c2cc(NCc3ccc(F)cc3)ccc2OC(C)(C)C1OC(=O)CC(C)(C)C (centres unmarked) [Compound 5-1762],1.8
10,CC1(C)Oc2ccc(NCc3ccccc3)cc2C(OCc2ccccc2)C1OCc1ccc(F)cc1 (centres unmarked) [Compound 5-290],3.02
11,COc1ccc(C(=O)OC2C(OC)c3cc(NCc4ccc(C)cc4)ccc3OC2(C)C)cc1 (centres unmarked) [Compound 5-1837],4.25
12,CCCCOC1c2cc(NC)ccc2OC(C)(C)C1OCc1ccc(C(C)(C)C)cc1 (centres unmarked) [Compound 5-51],5.2
13,CCNc1ccc2c(c1)C(OCC)C(OC(=O)CC(C)(C)C)C(C)(C)O2 (centres unmarked) [Compound 5-1562],3.03
14,CCNc1ccc2c(c1)C(OCC)C(OC(=O)C1CCCCC1)C(C)(C)O2 (centres unmarked) [Compound 5-1563],2.05
15,CCOC1c2cc(NCc3ccc(F)cc3)ccc2OC(C)(C)C1OCc1ccccc1C (centres unmarked) [Compound 5-469],4.38
16,COC1c2cc(NCc3ccc(F)cc3)ccc2OC(C)(C)C1OC(=O)c1ccccc1 (centres unmarked) [Compound 5-1765],5.13
17,CCOC1c2cc(NCc3ccc(F)cc3)ccc2OC(C)(C)C1OCc1ccccc1 (centres unmarked) [Compound 5-465],6.41
18,CCCCOC1c2cc(NCc3ccc(F)cc3)ccc2OC(C)(C)C1OC(=O)c1ccc(OC)cc1 (centres unmarked) [Compound 5-1797],3.56
19,Cc1ccccc1COC1C(OC(C)C)c2cc(NCc3ccc(F)cc3)ccc2OC1(C)C (centres unmarked) [Compound 5-485],2.66
20,CNc1ccc2c(c1)C(OCc1ccccc1)C(OCc1ccc(C(C)(C)C)cc1)C(C)(C)O2 (centres unmarked) [Compound 5-67],6.06
21,CCOC1c2cc(NCc3ccc(F)cc3)ccc2OC(C)(C)C1OCc1cccc(Cl)c1 (centres unmarked) [Compound 5-471],4.85
22,COC1c2cc(NCc3ccc(C)cc3)ccc2OC(C)(C)C1OC(=O)c1ccc(F)cc1 (centres unmarked) [Compound 5-1838],1.31
23,CCOC1c2cc(NCc3ccc(F)cc3)ccc2OC(C)(C)C1OCc1ccc(C)cc1 (centres unmarked) [Compound 5-472],3.9
24,CNc1ccc2c(c1)C(OCCC1CCCCC1)C(OCc1ccccc1)C(C)(C)O2 (centres unmarked) [Compound 5-97],5.34
25,CCOC1c2cc(NCc3ccc(F)cc3)ccc2OC(C)(C)C1OCc1ccc(F)cc1 (centres unmarked) [Compound 5-466],1.2

row,SMILES,IC50 [µM]
1,COC1c2cc(NCc3ccc(C)cc3)ccc2OC(C)(C)C1OC(=O)CC(C)(C)C (centres unmarked) [Compound 5-1832],1.09
2,CCCCOC1c2cc(NCc3ccc(F)cc3)ccc2OC(C)(C)C1OC(=O)c1cccs1 (centres unmarked) [Compound 5-1799],6.01
3,COC1c2cc(NCc3ccc(F)cc3)ccc2OC(C)(C)C1OC(=O)c1cccs1 (centres unmarked) [Compound 5-1769],5.97
4,COC1c2cc(NCc3ccc(C)cc3)ccc2OC(C)(C)C1OCc1ccc(F)cc1 (centres unmarked) [Compound 5-562],6.47
5,Cc1ccc(COC2C(OCCc3ccccc3)c3cc(NCc4ccccc4)ccc3OC2(C)C)cc1 (centres unmarked) [Compound 5-312],4.13
6,CCCCOC1c2cc(NC)ccc2OC(C)(C)C1OCc1ccc(Br)cc1F (centres unmarked) [Compound 5-57],4.37
7,Cc1ccccc1COC1C(OCCc2ccccc2)c2cc(NCc3ccccc3)ccc2OC1(C)C (centres unmarked) [Compound 5-309],2.9
8,CCCCOC1c2cc(NC)ccc2OC(C)(C)C1OCc1cccc(Cl)c1 (centres unmarked) [Compound 5-55],2.61
9,CC1(C)Oc2ccc(NCc3ccccc3)cc2C(OCc2ccccc2)C1OCc1cccc(F)c1 (centres unmarked) [Compound 5-292],3.25
10,CC1(C)Oc2ccc(NCc3ccccc3)cc2C(OCCc2ccccc2)C1OCc1ccc(Br)cc1F (centres unmarked) [Compound 5-313],1.44
11,CCNc1ccc2c(c1)C(OC)C(OC(=O)c1ccco1)C(C)(C)O2 (centres unmarked) [Compound 5-1560],2.31
12,CCOC1c2cc(NCc3ccc(F)cc3)ccc2OC(C)(C)C1OCc1ccc(Br)cc1F (centres unmarked) [Compound 5-473],2.72
13,CNc1ccc2c(c1)C(OCCC1CCCCC1)C(OCc1ccc(C)cc1)C(C)(C)O2 (centres unmarked) [Compound 5-104],4.01
14,CC1(C)Oc2ccc(NCc3ccc(F)cc3)cc2C(OCc2ccccc2)C1OC(=O)c1ccco1 (centres unmarked) [Compound 5-1840],1.03
15,Cc1ccc(COC2C(OCc3ccccc3)c3cc(NCc4ccccc4)ccc3OC2(C)C)cc1 (centres unmarked) [Compound 5-296],5.85
16,CC1(C)Oc2ccc(NCc3ccccc3)cc2C(OCc2ccccc2)C1OCc1cccc(Cl)c1 (centres unmarked) [Compound 5-295],1.29
17,CNc1ccc2c(c1)C(OC)C(OC(=O)C1CCCCC1)C(C)(C)O2 (centres unmarked) [Compound 5-1483],2.39
18,CCCCOC1c2cc(NC)ccc2OC(C)(C)C1OCc1ccccc1C (centres unmarked) [Compound 5-53],1.8
19,C/C=C/COC1C(OCC)c2cc(NCc3ccc(F)cc3)ccc2OC1(C)C (centres unmarked) [Compound 5-478],6.21
20,CCNc1ccc2c(c1)C(OCC)C(OC(=O)c1cccs1)C(C)(C)O2 (centres unmarked) [Compound 5-1569],3.41
21,CNc1ccc2c(c1)C(OCc1ccccc1)C(OCc1ccc3ccccc3c1)C(C)(C)O2 (centres unmarked) [Compound 5-74],3.6
22,CNc1ccc2c(c1)C(OCc1ccccc1)C(OCc1ccc(C)cc1)C(C)(C)O2 (centres unmarked) [Compound 5-72],7.39
23,CC(C)OC1c2cc(NCc3ccc(F)cc3)ccc2OC(C)(C)C1OCc1ccc2ccccc2c1 (centres unmarked) [Compound 5-490],2.24
24,CC1(C)Oc2ccc(NCc3ccccc3)cc2C(OCc2ccccc2)C1OCc1ccc2ccccc2c1 (centres unmarked) [Compound 5-298],6.07
25,C#CCOC1C(OCCCC)c2cc(NC)ccc2OC1(C)C (centres unmarked) [Compound 5-64],2.57

# More lines, now with the values ahead:
row,IC50 [µM],SMILES
1,2.46,C=CCOC1C(OCCCC)c2cc(NC)ccc2OC1(C)C (centres unmarked) [Compound 5-63]
2,1.42,CNc1ccc2c(c1)C(OCc1ccccc1)C(OCc1ccccc1C)C(C)(C)O2 (centres unmarked) [Compound 5-69]
3,2.85,CNc1ccc2c(c1)C(OCc1ccccc1)C(OCc1ccc(Br)cc1F)C(C)(C)O2 (centres unmarked) [Compound 5-73]
4,1.35,CCOC1c2cc(NCc3ccc(F)cc3)ccc2OC(C)(C)C1OC (centres unmarked) [Compound 5-476]
5,1.13,CNc1ccc2c(c1)C(OCc1ccccc1)C(OCc1ccccc1)C(C)(C)O2 (centres unmarked) [Compound 5-65]
6,0.98,CCCCOC1c2cc(NC)ccc2OC(C)(C)C1OCc1cccc(F)c1 (centres unmarked) [Compound 5-52]
7,3.6,C#CCOC1C(OCCCC)c2cc(NCc3ccc(F)cc3)ccc2OC1(C)C (centres unmarked) [Compound 5-512]
8,5.27,CNc1ccc2c(c1)C(OC)C(OC(=O)CC(C)(C)C)C(C)(C)O2 (centres unmarked) [Compound 5-1482]
9,2.89,CCNc1ccc2c(c1)C(OCC)C(OC(C)=O)C(C)(C)O2 (centres unmarked) [Compound 5-1561]
10,5.73,COC1c2cc(NCc3ccc(C)cc3)ccc2OC(C)(C)C1OCc1ccccc1Cl (centres unmarked) [Compound 5-566]
11,4.34,CC1(C)Oc2ccc(NCc3ccc(F)cc3)cc2C(OCc2ccccc2)C1OC(=O)c1ccco1 (centres unmarked) [Compound 5-1810]
12,2.71,COC1c2cc(NCc3ccc(C)cc3)ccc2OC(C)(C)C1OC(C)=O (centres unmarked) [Compound 5-1831]
13,2.04,C=CCOC1C(OC(C)C)c2cc(NCc3ccc(F)cc3)ccc2OC1(C)C (centres unmarked) [Compound 5-495]
14,0.91,CC(C)OC1c2cc(NCc3ccc(F)cc3)ccc2OC(C)(C)C1OCc1ccccc1Cl (centres unmarked) [Compound 5-486]
15,4.12,CC(C)(C)CC(=O)OC1C(OCc2ccccc2)c2cc(NCc3ccc(F)cc3)ccc2OC1(C)C (centres unmarked) [Compound 5-1802]
16,3.04,CNc1ccc2c(c1)C(OC)C(OC(=O)c1ccco1)C(C)(C)O2 (centres unmarked) [Compound 5-1490]
17,4.9,CCCCOC1c2cc(NC)ccc2OC(C)(C)C1OCc1ccc(F)cc1 (centres unmarked) [Compound 5-50]
18,1.16,COC1c2cc(NCc3ccc(C)cc3)ccc2OC(C)(C)C1OC(=O)c1ccc(C)cc1 (centres unmarked) [Compound 5-1836]
19,3.45,CCOC1c2cc(NCc3ccc(F)cc3)ccc2OC(C)(C)C1OCc1ccc2ccccc2c1 (centres unmarked) [Compound 5-474]
20,1.14,COC1c2cc(NCc3ccc(C)cc3)ccc2OC(C)(C)C1OC(=O)c1ccccc1 (centres unmarked) [Compound 5-1835]
21,3.68,Cc1ccccc1COC1C(OCc2ccccc2)c2cc(NCc3ccccc3)ccc2OC1(C)C (centres unmarked) [Compound 5-293]
